Data from patent publication US5220008A, “Oligosaccharide inhibitors for influenza virus” (priority 1991, dated 1993).

Tested on: influenza virus (A/Aichi/2/68)
Experiment: Inhibition of Influenza Virus Adsorbtion to Erythrocytes (hemagglutination of resialylated human erythrocytes)
Conditions: relative to Me αDNeuAc = 1.0 (Table 8)
Source text: The heptasaccharides can be evaluated as inhibitors of the influenza virus hemagglutination of the resialylated human erythrocytes.
^a Inhibition of influenza virus (A/Aichi/2/68) to resialylated

SMILES	Relative Potency
COC(=O)CCCCCOC1OC(CO)C(O)C(OC2OC(CO)C(OC3OC(COC4(C(=O)O)CC(O)C(NC(C)=O)C(C(O)C(O)CO)O4)C(O)C(O)C3O)C(O)C2NC(C)=O)C1OC1OC(CO)C(OC2OC(COC3(C(=O)O)CC(O)C(NC(C)=O)C(C(O)C(O)CO)O3)C(O)C(O)C2O)C(O)C1NC(C)=O [Example 27, 5-(Methoxycarbonyl)pentyl 2,3-di-O-{5-acetamido-3,5-dideoxy-D-glycero-D-galacto-2-nanulopyranosylonic acid(2→6)-β-D-galactopyranosyl(1→4)-2-acetamido-2-deoxy-β-D-glucopyranosyl}-β-D-galactopyranoside]	7.2
COC(=O)CCCCCOC1OC(CO)C(OC2OC(CO)C(OC3OC(COC4(C(=O)O)CC(O)C(NC(C)=O)C(C(O)C(O)CO)O4)C(O)C(O)C3O)C(O)C2NC(C)=O)C(O)C1OC1OC(CO)C(OC2OC(COC3(C(=O)O)CC(O)C(NC(C)=O)C(C(O)C(O)CO)O3)C(O)C(O)C2O)C(O)C1NC(C)=O [Example 28, 5-(Methoxycarbonyl)pentyl 2,4-di-O-{5-acetamido-3,5-dideoxy-D-glycero-D-galacto-2-nanulopyranosylonic acid(2→6)-β-D-galactopyranosyl(1→4)-2--acetamido-2-deoxy-β-D-glucopyranosyl}-β-D-galactopyranoside]	1.5
COC(=O)CCCCCOC1OC(CO)C(OC2OC(CO)C(OC3OC(CO)C(O)C(O)C3O)C(O)C2NC(C)=O)C(O)C1OC1OC(CO)C(OC2OC(COC3(C(=O)O)CC(O)C(NC(C)=O)C(C(O)C(O)CO)O3)C(O)C(O)C2O)C(O)C1NC(C)=O [Example 28A, 5-(methoxycarbonyl)pentyl 2-O-[5-acetamido-3,5-dideoxy-D-glycero-D-galactononulopyranosylonic acid (2→6)-β-D-galactopyranosyl-(1→4)-2-acetamido-2-deoxy-D-glycopyranosyl]-4-O-[β-D-galactopyranosyl-(1→4)-2-acetamido-2-deoxy-D-glucopyranosyl]-β-D-galactopyranoside]	1.9
COC(=O)CCCCCOC1OC(COC2OC(CO)C(OC3OC(COC4(C(=O)O)CC(O)C(NC(C)=O)C(C(O)C(O)CO)O4)C(O)C(O)C3O)C(O)C2NC(C)=O)C(O)C(OC2OC(CO)C(OC3OC(COC4(C(=O)O)CC(O)C(NC(C)=O)C(C(O)C(O)CO)O4)C(O)C(O)C3O)C(O)C2NC(C)=O)C1O [Example 30, 5-(Methoxycarbonyl)pentyl 3,6-di-O-{5-acetamido-3,5-dideoxy-D-glycero-D-galacto-2-nanulopyranosylonic acid(2→6)-β-galactopyranosyl(1→4)-2-acetamido-2-deoxy-β-D-glucopyranosyl}-β-D-galactopyranoside]	8.4
